{"source": "patent US11521704B2", "about": "“Method for probing at least one binding site of a protein” (priority 2017, dated 2022)", "key": {"[1]": {"tested_on": "SF-2 wild-type HIV-1 protease", "test": "Cell-based replicon assay", "details": "Human immunodeficiency virus 1, cell-based replicon assays", "from_the_text": "(§1) A diverse panel of 15 HIV-1 protease variants was chosen with a broad range of sequence substitutions containing single site mutants and more heavily mutated multi-drug resistant proteases (MDR-PRs). Both the SF-2 and NL4-3 wild-type (WT) proteases were used as controls for the variants in the panel. These two WT proteins shared 95% identity, varying at positions 7, 14, 41, 63 and 64 (FIG. 2). […] Table 1 is a listing of EC50 values for clinically-derived HIV-1 protease variants determined by cell-based assays at the Swanstrom laboratory at UNC-Chapel Hill, and fold changes relative to wild type NL4-3. The EC50 value for variant ATA21 could not be determined."}, "[2]": {"tested_on": "NL4-3 wild-type HIV-1 protease", "test": "Cell-based assay (Swanstrom laboratory)", "details": "Human immunodeficiency virus 1, NL43", "from_the_text": "as §1"}, "[3]": {"tested_on": "clinically-derived HIV-1 protease variant KY26", "test": "Cell-based assay (Swanstrom laboratory)", "details": "Human immunodeficiency virus 1"}, "[4]": {"tested_on": "clinically-derived HIV-1 protease variant SLK19", "test": "Cell-based assay (Swanstrom laboratory)", "details": "Human immunodeficiency virus 1"}, "[5]": {"tested_on": "clinically-derived HIV-1 protease variant VEG23", "test": "Cell-based assay (Swanstrom laboratory)", "details": "Human immunodeficiency virus 1"}, "[6]": {"tested_on": "clinically-derived HIV-1 protease variant VSL23", "test": "Cell-based assay (Swanstrom laboratory)", "details": "Human immunodeficiency virus 1"}}, "note": "Like-named read-outs stand apart in the source and are kept apart here.", "data": [{"compound": "CC(C)CN(C[C@@H](O)[C@H](Cc1ccccc1)NC(=O)O[C@H]1CO[C@H]2OCC[C@H]21)S(=O)(=O)c1ccc(N)cc1", "note": "[DRV, Darunavir]", "values": [{"measurement": "EC50", "setting": "[1]", "value": 4, "unit": "nM"}, {"measurement": "EC50", "setting": "[2]; NL4-3, cell-based replicon assays, read-out: EC50", "value": 4, "unit": "nM"}, {"measurement": "EC50", "setting": "[2]; NL4-3 wild type, read-out: EC50 In", "value": 3.98, "unit": "nM"}, {"measurement": "EC50", "setting": "[3]", "value": 1160, "unit": "nM"}, {"measurement": "EC50", "setting": "[4]", "value": 32.5, "unit": "nM"}, {"measurement": "EC50", "setting": "[5]", "value": 7800, "unit": "nM"}, {"measurement": "EC50", "setting": "[6]", "value": 320, "unit": "nM"}]}]}
